Data reported in patent publication US20050053647A1, “Pharmaceutical product comprising the active substance diamorphine, and its use in a process for treating opiate addiction” (priority 1999, published 2005).
≈ marks a conversion by molar mass, not a printed value.

Columns and labels:
[1] = Saturation solubility of diamorphine base in solvents
[2] = Rate of hydrolytic breakdown of diamorphine base in solvents (diamorphine content over time); conditions: for Diamorphine content: area percentages
[3] = In vitro skin permeation from TTS, nude guinea pig skin model; assay type: in vitro ADME
Procedure: Diamorphine is determined as total of heroin+morphine metabolite.

[4] = system: heroin addicts; conditions: cited from earlier work

CC(=O)Oc1ccc2c3c1O[C@H]1[C@@H](OC(C)=O)C=C[C@H]4[C@@H](C2)N(C)CC[C@@]341 [diamorphine base, diamorphine]
solubility ([1]; Benzyl nicotinate, organic solvent or mixture): 23.2 mg/mL (≈ 62.8 mM)
solubility ([1]; Benzyl nicotinate/Vitamin E 1:1, organic solvent or mixture): 17.7 mg/mL (≈ 47.9 mM)
solubility ([1]; Dimethylisosorbide, organic solvent or mixture): 12.8 mg/mL (≈ 34.6 mM)
solubility ([1]; Dimethylisosorbide/Vitamin E 1:1, organic solvent or mixture): 9.82 mg/mL (≈ 26.6 mM)
solubility ([1]; Lemon oil, oil or lipid): 10.3 mg/mL (≈ 27.9 mM)
solubility ([1]; Lemon oil/Vitamin E 1:1, oil or lipid): 8 mg/mL (≈ 21.7 mM)
solubility ([1]; N-Methylpyrrolidone, organic solvent or mixture): 32.2 mg/mL (≈ 87.2 mM)
solubility ([1]; N-Methylpyrrolidone/Vitamin E 1:1, organic solvent or mixture): 24.8 mg/mL (≈ 67.1 mM)
solubility ([1]; Oleic acid, oil or lipid): 22.6 mg/mL (≈ 61.2 mM)
solubility ([1]; Oleic acid/Vitamin E 1:1, oil or lipid): 17.2 mg/mL (≈ 46.6 mM)
solubility ([1]; R-(+)-Limonene, organic solvent or mixture): 25.1 mg/mL (≈ 67.9 mM)
solubility ([1]; R-(+)-Limonene/Vitamin E 1:1, organic solvent or mixture): 19 mg/mL (≈ 51.4 mM)
solubility ([1]; Tween 80, organic solvent or mixture): 5.81 mg/mL (≈ 15.7 mM)
solubility ([1]; Tween 80/Vitamin E 1:1, organic solvent or mixture): 4.45 mg/mL (≈ 12 mM)
solubility ([1]; Vitamin E, oil or lipid): 1.62 mg/mL (≈ 4.39 mM)
Effect of combinations of vitamin E with a further aprotic solvent on the rate of hydrolytic breakdown ([2]; combinations of vitamin E with solvent (Table 1)): surprisingly positive stabilizing effect
Diamorphine content ([2]; solvent Benzyl nicotinate/Vitamin E 1:1, t = 0.5 h): 99.2%
Diamorphine content ([2]; solvent Benzyl nicotinate/Vitamin E 1:1, t = 24 h): 99.0%
Diamorphine content ([2]; solvent Benzyl nicotinate, t = 0.5 h): 97.8%
Diamorphine content ([2]; solvent Benzyl nicotinate, t = 24 h): 86.5%
Diamorphine content ([2]; solvent Dimethylisosorbide/Vitamin E 1:1, t = 0.5 h): 100%
Diamorphine content ([2]; solvent Dimethylisosorbide/Vitamin E 1:1, t = 24 h): 99.8%
Diamorphine content ([2]; solvent Dimethylisosorbide, t = 0.5 h): 98.5%
Diamorphine content ([2]; solvent Dimethylisosorbide, t = 24 h): 93.5%
Diamorphine content ([2]; solvent Lemon oil/Vitamin E 1:1, t = 0.5 h): 99.1%
Diamorphine content ([2]; solvent Lemon oil/Vitamin E 1:1, t = 24 h): 98.9%
Diamorphine content ([2]; solvent Lemon oil, t = 0.5 h): 93.5%
Diamorphine content ([2]; solvent Lemon oil, t = 24 h): 80.5%
Diamorphine content ([2]; solvent N-Methylpyrrolidone/Vitamin E 1:1, t = 0.5 h): 99.8%
Diamorphine content ([2]; solvent N-Methylpyrrolidone/Vitamin E 1:1, t = 24 h): 99.7%
Diamorphine content ([2]; solvent N-Methylpyrrolidone, t = 0.5 h): 97.8%
Diamorphine content ([2]; solvent N-Methylpyrrolidone, t = 24 h): 87.8%
Diamorphine content ([2]; solvent Oleic acid/Vitamin E 1:1, t = 0.5 h): 99.6%
Diamorphine content ([2]; solvent Oleic acid/Vitamin E 1:1, t = 24 h): 99.6%
Diamorphine content ([2]; solvent Oleic acid, t = 0.5 h): 97.4%
Diamorphine content ([2]; solvent Oleic acid, t = 24 h): 90.3%
Diamorphine content ([2]; solvent R-(+)-Limonene/Vitamin E 1:1, t = 0.5 h): 99.7%
Diamorphine content ([2]; solvent R-(+)-Limonene/Vitamin E 1:1, t = 24 h): 99.6%
Diamorphine content ([2]; solvent R-(+)-Limonene, t = 0.5 h): 96.7%
Diamorphine content ([2]; solvent R-(+)-Limonene, t = 24 h): 87.7%
Diamorphine content ([2]; solvent Tween 80/Vitamin E 1:1, t = 0.5 h): 100%
Diamorphine content ([2]; solvent Tween 80/Vitamin E 1:1, t = 24 h): 100%
Diamorphine content ([2]; solvent Tween 80, t = 0.5 h): 99%
Diamorphine content ([2]; solvent Tween 80, t = 24 h): 93.4%
Diamorphine content ([2]; solvent Vitamin E, t = 0.5 h): 100%
Diamorphine content ([2]; solvent Vitamin E, t = 24 h): 100%
Skin passage in relation to morphine and buprenorphine ([3]; TTS matrix of same base formulation and loading, citrate buffer pH=3.0 + 0,1% NaN3, T=37° C., diamorphine determined as total of heroin + morphine metabolite): better skin passage
Skin flux in flow equilibrium (permeation rate) compared with morphine and buprenorphine ([3]; nude guinea pig skin, TTS of identical formulation, in some cases): markedly higher
State of health of the heroin addicts ([4]; state-controlled administration, intravenous or pulmonary (cigarettes), 969 heroin addicts): Marked improvements

CCC(=O)C(CC(C)N(C)C)(c1ccccc1)c1ccccc1 (centres unmarked) [methadone]
Therapy of heroin dependents compared with heroin ([4]; even on intravenous administration, Swiss experiment): inferior to heroin
